Series [1] in a line: Solubilization of 1 mg/mL peptides in culture medium, DMSO or urea. It counts as physicochemical. Conditions: for Resuspension with DMSO: DMSO 2% of final volume of 1 mg/mL stock and clean medium, after sonication. The method, then: In order to measure the capacity of the peptides to inhibit IL-10, it is necessary for them to be in solution in the culture medium in which the proliferation assay with MC/9 cells is conducted. To that end, an attempt was first made to dissolve the peptides in complete medium at the concentration of 1 mg/mL. Due to the fact that, of the 26 peptides of Table 1, only 10 were soluble and 2 were partially soluble in these conditions (Table 3), it was necessary to improve the solubility of the remaining peptides by adding different proportions of dimethyl sulfoxide (DMSO) or urea. Other solubilizing agents, such as guanidine hydrochloride, ethanol, methanol, isopropanol, dimethylformamide (DMF), acetone, acetonitrile, ammonia and acetic acid were also tested, but due to the fact that they were not very effective or toxic for the cells, their use was discarded. For the purpose of limiting as much as possible the toxicity of DMSO or urea, the concentration of both agents in the culture medium was kept as low as possible compatible with the in vitro assay. Thus, the maximum concentration of solubilizing agent to be added which allows conducting the in vitro proliferation assay of MC/9 cells was first determined. As indicated above, 1, 0.5, 0.1, 0.05, 0.01, 0.005 and 0.001% acetic acid, ammonia, DMSO, DMF, acetone, acetonitrile, isopropanol, methanol and ethanol and 2, 1, 0.5, 0.250, 0.125, 0.062 and 0.031 M urea and guanidine hydrochloride were tested.
Guanidine hydrochloride was very toxic in all tested concentrations. […] In the case of urea, the limit concentration was 125 mM, and for ammonia, 0.2% (maximum tested). In relation to the alcohols, they were compatible up to 1% (maximum) and acetone and acetonitrile seemed to induce MC/9 cell proliferation. DMSO: • The resuspension of the peptides identified as SEQ ID NO: 5, SEQ ID NO: 6, SEQ ID NO: 9, SEQ ID NO: 12, SEQ ID NO: 15 and SEQ ID NO: 16 with DMSO (2% of the final volume of the 1 mg/mL stock) and clean medium was tested. After subjecting them to sonication, all of them were still cloudy, except the peptide identified as SEQ ID NO: 16. Methanol/Ethanol • To dissolve peptides using these alcohols, it is necessary to use them at 100% and at this concentration they are toxic for MC/9 cells. They are toxic even at 70%. Urea • The peptides identified as SEQ ID NO: 6, SEQ ID NO: 16, SEQ ID NO: 17, SEQ ID NO: 18 and SEQ ID NO: 20 were dissolved in 8 M urea (final concentration 0.8 M in 1 mg/mL) and complete medium. Urea is relatively toxic (cpm without urea 1.128, with 120 mM urea 109, with 80 mM 308 and with 20 mM 800, but the window is maintained).
Of the total of 39 peptides indicated, 11 (in bold print) could not be solubilized with any of the indicated conditions, therefore they could not be tested in the in vitro assay.
The peptides which could not be solubilized with any of the tested conditions are indicated in bold print. part S: partially soluble; S: soluble; I: insoluble

The subject of another series is MC/9 cells. Put plainly: Toxicity: inhibition of mGM-CSF-induced MC/9 cell proliferation. It counts as cell-based, mouse. To be noted: inhibition of proliferation induced by 0.01 ng/mL mGM-CSF. An excerpt:
The addition of peptides with the capacity to inhibit the activity of IL-10 to the MC/9 cell culture, to which exogenous IL-10 has been added, has the effect of inhibiting the proliferation of these cells due to the fact that IL-10 promotes the proliferation thereof. However, the addition of a peptide or any component to the culture (used to improve peptide solubility) which was toxic for MC/9 cells would also have the effect of inhibiting cell proliferation. […] For this purpose, an assay in parallel of the peptides using mouse granulocyte-monocyte colony-stimulating factor (mGM-CSF) (which also promotes MC/9 cell proliferation) instead of IL-10 was conducted. The concentration of mGM-CSF used was 0.01 ng/mL. In this case, IL-4 was not used as co-stimulus. The toxicity was expressed as the percentage of inhibition of the proliferation induced by mGM-CSF.
In the case of the peptides dissolved in urea, when analyzing both the IL-10 inhibition and the toxicity, negative, positive controls and controls with antibody with the concentrations of urea present in the peptide sample (120 mM, 80 mM and 20 mM) as well as controls without urea were included. The percentage of inhibition at each concentration of peptide was calculated comparing the cpm values of the sample with the values of the controls which contained the same concentration of urea.

The mark [2] stands for this setting: 1 mg/mL peptide, read-out: Solubility, 0.8 M UREA.
The mark [3] stands for this setting: 1 mg/mL peptide, read-out: Solubility, Complete medium.

Where two headings read alike, the source gives them in different places. Where a SMILES comes first, the peptide text is derived from it. Where no end group is shown, it is not given here.

From patent US8148334B2, “Peptides with capacity for binding with interleukine 10 (IL-10)” (Proyecto de Biomedicina Cima, S.L., priority 2007, dated 2012) come the findings set out here.

Broadly, the solubility is the concentration that dissolves in the medium under given conditions.

With `CC(C)[C@H](NC(=O)[C@H](C)NC(=O)[C@@H](NC(=O)[C@@H]1CCCN1C(=O)[C@H](Cc1c[nH]cn1)NC(=O)[C@H](CCCNC(=N)N)NC(=O)[C@H](CCCNC(=N)N)NC(=O)[C@H](Cc1ccccc1)NC(=O)[C@H](Cc1c[nH]cn1)NC(=O)[C@H](Cc1ccccc1)NC(=O)[C@H](CS)NC(=O)[C@H](CCCNC(=N)N)NC(=O)[C@H](Cc1c[nH]cn1)NC(=O)[C@@H](N)CS)C(C)C)C(=O)N[C@@H](Cc1ccccc1)C(=O)O` [P9] (H-CHRCFHFRRHPVAVF-OH; N-terminus and C-terminus assumed), in series [1], the solubility entry is listed as “insoluble” and the “Resuspension with DMSO” value is reported as “still cloudy”.
On to `CC(C)[C@H](NC(=O)[C@H](C)NC(=O)[C@@H](NC(=O)[C@@H]1CCCN1C(=O)[C@H](Cc1c[nH]cn1)NC(=O)[C@H](CCCNC(=N)N)NC(=O)[C@H](CCCNC(=N)N)NC(=O)[C@H](Cc1ccccc1)NC(=O)[C@H](Cc1c[nH]cn1)NC(=O)[C@H](Cc1ccccc1)NC(=O)[C@H](CS)NC(=O)[C@H](CCCNC(=N)N)NC(=O)[C@H](Cc1c[nH]cn1)NC(=O)[C@@H](N)CS)C(C)C)C(=O)N[C@@H](Cc1ccccc1)C(=O)O` [compound 6] (H-CHRCFHFRRHPVAVF-OH; N-terminus and C-terminus assumed), for which the “Solubility, 2% DMSO” value in series [1] (1 mg/mL peptide) is given as “Turbidity”. Further, the solubility in series [1] (setting [2]) is above 1000 µg/mL; in series [1] (setting [3]), below 1000 µg/mL.
In the case of `CC(C)C[C@H](NC(=O)[C@H](Cc1ccccc1)NC(=O)[C@H](C)NC(=O)[C@H](CC(C)C)NC(=O)[C@@H](NC(=O)[C@H](Cc1ccccc1)NC(=O)[C@H](CC(C)C)NC(=O)[C@H](Cc1c[nH]cn1)NC(=O)[C@H](CS)NC(=O)[C@H](CS)NC(=O)[C@H](CCCNC(=N)N)NC(=O)[C@H](Cc1c[nH]cn1)NC(=O)[C@H](C)N)[C@@H](C)O)C(=O)N[C@@H](Cc1ccccc1)C(=O)N[C@@H](C)C(=O)O` [compound 21] (H-AHRCCHLFTLAFLFA-OH; N-terminus and C-terminus assumed), the “Solubility, 0.8 M UREA” value in series [1] (1 mg/mL peptide) is on record as “Turbidity”. Further, the solubility in series [1] (setting [3]) is below 1000 µg/mL.
As to `CC(C)C[C@H](NC(=O)CNC(=O)[C@H](C)NC(=O)[C@H](CS)NC(=O)[C@@H](NC(=O)[C@H](Cc1ccccc1)NC(=O)[C@H](Cc1ccccc1)NC(=O)[C@H](CO)NC(=O)[C@@H](N)CCC(=O)O)C(C)C)C(=O)N[C@@H](CS)C(=O)N[C@@H](CCCNC(=N)N)C(=O)N[C@@H](CC(C)C)C(=O)N[C@@H](CCC(N)=O)C(=O)N1CCC[C@H]1C(=O)N[C@@H](Cc1ccc(O)cc1)C(=O)O` [compound 23] (H-ESFFVCAGLCRLQPY-OH; N-terminus and C-terminus assumed), the “Solubility, 0.8 M UREA” value in series [1] (1 mg/mL peptide) is “Turbidity”. The solubility in series [1] (setting [3]) is below 1000 µg/mL.
The corresponding values for `CC[C@H](C)[C@H](NC(=O)[C@H](CC(C)C)NC(=O)[C@H](Cc1ccccc1)NC(=O)CNC(=O)[C@@H](NC(=O)[C@H](CC(C)C)NC(=O)[C@H](C)NC(=O)[C@H](CO)NC(=O)[C@H](CS)NC(=O)CN)C(C)C)C(=O)N[C@@H](CC(C)C)C(=O)N[C@@H](CC(C)C)C(=O)N[C@@H](CS)C(=O)N[C@@H](CS)C(=O)N[C@@H](CCSC)C(=O)O` [compound 26] (H-GCSALVGFLILLCCM-OH; N-terminus and C-terminus assumed) are “Turbidity” and below 1000 µg/mL.
With AKVPSFRRSSLGSVR [compound 4], the solubility in series [1] (setting [3]) is above 1000 µg/mL.
The same measure, in the same setting: in the case of ARFPKELRGSVRSAH [compound 14] it was above 1000 µg/mL; in that of ARWMHRHHGWSDRHR [compound 2], above 1000 µg/mL.
The same measure, in the same setting: the value for FRSFHYHTGRWHWLP [compound 22] was below 1000 µg/mL.
On to FSWYFRHHRLMVAGP [P24], for which, in the series with MC/9 cells, the “toxicity for MC/9 cells” value was “partially toxic”.
As for FSWYFRHHRLMVAGP [compound 18], the solubility was above 1000 µg/mL in series [1] (setting [2]) and below 1000 µg/mL in series [1] (setting [3]).
Consider GAGVLTPFTWRRFHM [compound 10], for which the solubility in series [1] (setting [3]) was above 1000 µg/mL.
For GRFRHYSMLRHHSIR [compound 19], the solubility in series [1] (setting [3]) was above 1000 µg/mL.
Consider GRVPSMFGGHFFFSR [P21], for which the “Resuspension with DMSO” value in series [1] is reported as “still cloudy”.
For the compound GRVPSMFGGHFFFSR [compound 15], in series [1] (1 mg/mL peptide), the “Solubility, 0.8 M UREA” value is “Turbidity” and the “Solubility, 2% DMSO” value is listed as “Turbidity”. For the same compound, the solubility in series [1] (setting [3]) was below 1000 µg/mL.
GVLSSIFSWRLVALH [P18]: the “Resuspension with DMSO” value in series [1] was “still cloudy”.
GVLSSIFSWRLVALH [compound 12]: in series [1] (1 mg/mL peptide), the “Solubility, 0.8 M UREA” value was “Turbidity” and the “Solubility, 2% DMSO” value is “Turbidity”. Moreover, the solubility in series [1] (setting [3]) was below 1000 µg/mL.
Regarding HGFFAGGLAHWHGHR [P26], in the series on MC/9 cells, the “toxicity for MC/9 cells” value is listed as “partially toxic”.
With HGFFAGGLAHWHGHR [compound 20], the solubility in series [1] (setting [2]) is above 1000 µg/mL; in series [1] (setting [3]) it was below 1000 µg/mL.
For the compound HRHFRWLNGMPRLLG [compound 25], the solubility in series [1] (setting [3]) was below 1000 µg/mL.
Same read-out and setting: in the case of HRWMPHVFAVRQGAS [compound 7] it was above 1000 µg/mL; in that of IFRVLSRMLPGTSVI [compound 13], above 1000 µg/mL.
Turning to LFLLSGVFVPDLHEG [compound 24], the “Solubility, 0.8 M UREA” value in series [1] (1 mg/mL peptide) is listed as “Turbidity”. The solubility in series [1] (setting [3]) is below 1000 µg/mL.
Consider PFVVSDIAFMGLFYD [compound 3], for which the solubility in series [1] (setting [3]) is below 1000 µg/mL.
Take RFYHADMLLRHVLMM [P8]: the “Resuspension with DMSO” value in series [1] is “still cloudy”.
RFYHADMLLRHVLMM [compound 5]: in series [1] (1 mg/mL peptide), the “Solubility, 0.8 M UREA” value is recorded as “Turbidity” and the “Solubility, 2% DMSO” value is recorded as “Turbidity”. Further, the solubility in series [1] (setting [3]) was below 1000 µg/mL.
RGWILDVVYLYPGPL [compound 17]: the solubility in series [1] (setting [2]) and in series [1] (setting [3]) was below 1000 µg/mL in each case.
With RKLRPHWLHFHPVAV [compound 1], in series [1] (setting [3]), the solubility is above 1000 µg/mL.
As to RMLGFMSGSWRTPVR [compound 11], the solubility in series [1] (setting [3]) is above 1000 µg/mL.
In the case of TRHRHVPRFLPLRHV [P13], the solubility entry in series [1] was “soluble”.
As to TRHRHVPRFLPLRHV [compound 8], the solubility in series [1] (setting [3]) was above 1000 µg/mL.
WAYYHAGHSSFAVWT [P14]: the “Resuspension with DMSO” value in series [1] is on record as “still cloudy”.
As to WAYYHAGHSSFAVWT [compound 9], in series [1] (1 mg/mL peptide), the “Solubility, 0.8 M UREA” value is “Turbidity” and the “Solubility, 2% DMSO” value is “Turbidity”. In series [1] (setting [3]), the solubility was below 1000 µg/mL.
With WSLLRIVYNRHSHSK [compound 16], the solubility in series [1] (setting [2]) was above 1000 µg/mL; in series [1] (1 mg/mL peptide, read-out: Solubility, 2% DMSO), below 1000 µg/mL; in series [1] (setting [3]), below 1000 µg/mL.
